The source of these data is article PMC8427973, “Regulation of the HTRA2 Protease Activity by an Inhibitory Antibody-Derived Peptide Ligand and the Influence on HTRA2-Specific Protein Interaction Networks in Retinal Tissues” (Biomedicines, 2021).

This assay has as its target T1, recombinant HTRA2 protein (Homo sapiens, UniProt O43464).
T1 construct: 6xHis (C); purchased Novoprotein Scientific INC., Summit, NJ, USA
T1 sequence (O43464 134-458): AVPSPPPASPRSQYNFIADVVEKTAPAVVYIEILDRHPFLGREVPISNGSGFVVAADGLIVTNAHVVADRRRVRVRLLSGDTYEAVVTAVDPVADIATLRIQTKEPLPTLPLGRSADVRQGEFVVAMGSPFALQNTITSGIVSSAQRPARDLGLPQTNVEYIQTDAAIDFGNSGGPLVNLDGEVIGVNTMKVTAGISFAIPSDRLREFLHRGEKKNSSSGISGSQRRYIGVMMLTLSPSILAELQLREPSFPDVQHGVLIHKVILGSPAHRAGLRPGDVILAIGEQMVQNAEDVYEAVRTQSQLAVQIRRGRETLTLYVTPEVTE
In words: HTRA2 protease activity assay with fluorescent H2-optimal substrate. As to conditions: for Average degradation rate of the optimal substrate H2 by HTRA2 (enzymatic reaction rate per minute): pH 8.0, RT, untreated positive control 229 U/min. Type of assay: biochemical. As for the experimental part: The HTRA2 protease activity assay was performed as described by Martins et al. (2003), but with some slight modifications. The experiment was performed with 100 nM recombinant HTRA2 protein (Novoprotein Scientific INC., Summit, NJ, USA) in a protease assay buffer (50 mM tris(hydroxymethyl)-aminomethane (TRIS), 0.5 mM ethylenediaminetetraacetic acid (EDTA), and 1 mM dithiothreitol (DTT), pH 8.0) containing 10 µM H2-optimal substrate (Innovagen AB, Lund, Sweden). The H2-optimal substrate is commonly used to measure the protease activity of HTRA2 and consists of a structural quencher and a fluorophore unit. The cleavage of the substrate leads to the disruption of the quencher/fluorophore complex and the degradation rate can be measured by fluorescence. The different sample groups were treated with 50 µM PDZ-Opt, 50 µM PDZ-Sub, 50 µM synthetic CDR1 peptide, or 30 µM UCF-101, respectively. The drug compound UCF-101 is an inhibitor of the catalytic domain of HTRA2 and was purchased from Sigma Aldrich (Darmstadt, Germany). The concentrations of the peptide ligands for the HTRA2 protease activity assay were chosen from the previous publication. The concentration of UCF-101 was determined to be optimal from the preliminary experiments. In addition, a positive control containing only 100 nM recombinant HTRA2 and a negative control (only protease assay buffer) were included in this experiment. All of the sample groups were incubated for 1 h at 37 °C to determine the maximum degradation rate of HTRA2. For the analysis of the enzymatic reaction rate of HTRA2, all samples were measured subsequently after the addition of the 10 µM H2-optimal substrate at RT. Fluorescence was monitored on a Spark® 10 M multimode microplate-reader (Tecan Trading AG, Männedorf, Switzerland) with an excitation at 320 nm and a fluorescence emission at 405 nm. The fluorescence background of the substrate was substracted from the fluorescence intensities of the different the sample groups to normalize the data.
To determine the proteolytic activity of HTRA2 we used the fluorescent H2 optimal substrate developed by Martins et al. (2003). The optimal substrate H2 encoded a short specific amino acid sequence, which is preferentially cleaved by HTRA2, and was also modified with a fluorescent dye and quencher. […] Under physiological conditions, the proteolytic activity of HTRA2 is suppressed by the C-terminal PDZ domain, which blocks the access of potential substrates to the catalytic domain by steric hindrance. The binding of short hydrophobic polypeptides to the allosteric PDZ domain can induce specific conformational changes of HTRA2 and are able to regulate its proteolytic activity. Therefore, Martins et al. (2003) specifically designed the peptide ligands PDZ-Opt (GQYYFV) and PDZ-Sub (GGIRRV), which are known to increase the proteolytic activity of HTRA2 in this assay.

Consider “ASGYTFTNYGLSWVR [CDR, synthetic peptide encoding a complementary-determining region 1 (CDR1) of polyclonal antibody molecules]”, for which the “Decrease of the average degradation rate of the optimal substrate H2 compared with the untreated positive control” value (50 µM peptide, 100 nM HTRA2, 10 µM substrate, RT) is given as “around 45%”. Besides, the “Average degradation rate of the optimal substrate H2 by HTRA2 (enzymatic reaction rate per minute)” value (50 µM peptide, 100 nM recombinant HTRA2, 10 µM H2-optimal substrate, fluorescence ex 320 nm / em 405 nm) stood at 127 U/min. Also, for the setting “50 µM peptide, 1 h at 37 °C, n = 3, Figure 1C”, the “Maximum degradation rate of the H2 optimal substrate by HTRA2” value is “significantly decreased”. Besides, the “Inhibition of the proteolytic activity of HTRA2” value (specific protease function assay, p < 0.01 (abstract)) was “up to 50%”.
For `O=C1C(=Cc2ccc(-c3ccccc3[N+](=O)[O-])o2)C(=O)N(c2ccccc2)C(=S)N1c1ccccc1` [UCF-101, reference compound], for the setting “30 µM UCF-101, 100 nM recombinant HTRA2, 10 µM H2-optimal substrate”, the “Average degradation rate of the optimal substrate H2 by HTRA2 (enzymatic reaction rate per minute)” value is reported as 0 U/min.
